Where a name gives a salt, the structure may show the parent alone.
Key:
[1] = test system: collagen production induced by TGF-β (NHDF cells); assay: Inhibitory effect on collagen production induced by TGF-β, [3H] proline uptake (NHDF cells); type: cell-based, human; details: TGF-β1 3 ng/ml; for inhibition at 1 µM / inhibition at 3 µM / inhibition at 10 µM: Homo sapiens, NHDF
Experimental: As an index of collagen production, the uptake of [^3H] proline was measured.
Using a 96-well microplate, normal human skin derived fibroblast (NHDF, 10^4/well) or human embryonic lung fibroblast (TIG-3, 10^4/well) were cultured in a 10% fetal calf serum (FCS)-containing Dulbecco's modified Eagle medium (DMEM) for one day. After removing the culture supernatant, the cells were washed once with a 0.1% bovine serum albumin (BSA)-containing DMEM medium and then cultured in the 0.1% bovine serum albumin (BSA)-containing DMEM medium for one day. After adding each of the test compounds in each concentration (1, 3, 10 μM), the cells were cultured and, after adding TGF-β1 (3 ng/ml) and [^3H] proline (18.5 kBq/well), the cells were further cultured for additional one day.
After removing the culture supernatant, the cells were washed twice with a phosphate buffer solution (PBS) and dissolved with 0.3M NaOH and 1% sodium dodecylsulfate (SDS), and then each protein fraction was precipitated with trichloroacetic acid (TCA) After the precipitate was filtered through a glass filter (GF/B) and washed, the quantity of [^3H] proline on the glass filter was measured by a liquid scintillation counter. The number of cells was measured by a cell growth measuring kit (XTT, Roche) and the uptake of [^3H] proline was corrected by the number of cells. Inhibitory ratio was calculated as compared with the case where a difference between the uptake of [^3H] proline with or without TGF-β1.

[2] = Measurement of concentration of compound in rat plasma; type: in vivo; details: oral 10 mg/kg; for concentration at 0.25 h: after 0.25 hours; for concentration at 1 h: after 1 hour; for concentration at 4 h: after 4 hours
Experimental: Each of the test compounds was dissolved or suspended in methyl cellulose and the resulting solution or suspension was orally administered to rats at a dosage of 10 mg/kg and blood was collected after 0.25 hours, 1 hour and 4 hours. The concentration in plasma in each of the compounds was measured by HPLC.

concentration at 0.25 h [2] [ng/mL] | concentration at 1 h [2] [ng/mL] | concentration at 4 h [2] [ng/mL] | Structure (SMILES) | inhibition at 1 µM ([1]; 1 μM) [%] | inhibition at 3 µM [1] [%] | inhibition at 10 µM [1] [%] | Inhibitory effect on collagen production induced by TGF-β (% inhibition) ([1]; 1 μM) [%]
1400 to 2300 | 520 to 720 | 87 to 160 | Cc1ccc2c(c1)c(C(=O)N1CCN(c3cnc(C(=O)NCCc4scnc4C)cn3)CC1)c(-c1ccccc1)n2C [Example 5, 5-{4-[(1,5-dimethyl-2-phenyl-1H-indol-3-yl)carbonyl]piperazin-1-yl}-N-[2-(4-methyl-1,3-thiazol-5-yl)ethyl]pyrazine-2-carboxamide trihydrochloride] | 40 | 43 | 88 | 
71 to 170 | 400 to 550 | 320 to 460 | CC1c2cc3c(cc2CCN1C(=O)/C=C/c1c(-c2ccccc2)n(C)c2ncccc12)OCO3 (centres unmarked) [Example 28, 5-methyl-6-[(2E)-3-(1-methyl-2-phenyl-1H-pyrrolo[2,3-b]pyridin-3-yl)prop-2-enoyl]-5,6,7,8-tetrahydro[1,3]dioxolo[4,5-g]isoquinoline hydrochloride] | 31 | 40 | 92 | 
120 to 660 | 370 to 640 | 260 to 310 | COc1cc2c(cc1OC)C(C)N(C(=O)/C=C/c1c(-c3ccccc3)n(C)c3ncccc13)CC2 (centres unmarked) [Example 3, 6,7-dimethoxy-1-methyl-2-[(2E)-3-(1-methyl-2-phenyl-1H-pyrrolo[2,3-b]pyridin-3-yl)prop-2-enoyl]-1,2,3,4-tetrahydroisoquinoline hydrochloride] | 65 | 105 | 143 | 
14 to 19 | 44 to 71 | 25 to 32 | Cn1c(-c2ccccc2)c(/C=C/C(=O)N2CCc3ccccc3C2)c2cccnc21 [Example 104, 2-[(2E)-3-(1-methyl-2-phenyl-1H-pyrrolo[2,3-b]pyridin-3-yl)prop-2-enoyl]-1,2,3,4-tetrahydroisoquinoline hydrochloride] |  |  |  | 
 |  |  | CN1CCC(N(C)C(=O)/C=C/c2c(-c3ccccc3)n(C)c3ncccc23)CC1 [Example 122, (2E)-N-methyl-N-(1-methyl-piperidin-4-yl)-3-(1-methyl-2-phenyl-1H-pyrrolo[2,3-b]pyridin-3-yl)acrylamide] | 20 | 57 |  | 
 |  |  | CN(CCC(O)c1ccccc1)C(=O)/C=C/c1c(-c2ccc3c(c2)OCO3)n(C)c2ccccc12 (centres unmarked) [Example 112, (2E)-N-methyl-N-(3-hydroxy-3-phenylpropyl)-3-[1-methyl-2-(3,4-methylenedioxyphenyl)-1H-indol-3-yl]acrylamide] |  | 73 | 143 | 
 |  |  | COCn1c(-c2ccccc2)c(/C=C/C(=O)N2CCc3cc(OC)c(OC)cc3C2)c2cccnc21 [Example 139, 2-[(2E)-3-(1-methoxymethyl-2-phenyl-1H-pyrrolo[2,3-b]pyridin-3-yl)prop-2-enoyl]-6,7-dimethoxy-1,2,3,4-tetrahydroisoquinoline hydrochloride] | 37 | 54 |  | 
 |  |  | COc1cc2c(cc1OC)C(CC(=O)O)N(C(=O)/C=C/c1c(-c3ccccc3)n(C)c3ncccc13)CC2 (centres unmarked) [Example 124, {6,7-dimethoxy-2-[(2E)-3-(1-methyl-2-phenyl-1H-pyrrolo[2,3-b]pyridin-3-yl)prop-2-enoyl]-1,2,3,4-tetrahydroisoquinolin-1-yl}acetic acid] |  | 108 |  | 21
 |  |  | COc1cc2c(cc1OC)CN(C(=O)/C=C/c1c(-c3ccccc3)n(C)c3ncccc13)CC2 [Example 109, 2-[(2E)-3-(1-methyl-2-phenyl-1H-pyrrolo[2,3-b]pyridin-3-yl)prop-2-enoyl]-6,7-dimethoxy-1,2,3,4-tetrahydroisoquinoline hydrochloride] | 50 | 76 | 135 | 
230 to 800 | 130 to 300 | 0 to 92 | Cc1ccc2c(c1)c(C(=O)N1CCN(c3ccc(-c4nnn(C)n4)cn3)CC1)c(-c1ccccc1)n2C [Example 26, 1,5-dimethyl-2-phenyl-3-[{4-[5-(2-methyl-2H-tetrazol-5-yl)pyridin-2-yl]piperazin-1-yl}carbonyl]-1H-indole] |  |  |  | 
 |  |  | Cn1c(-c2ccc3c(c2)OCO3)c(/C=C/C(=O)N(CCCCO)Cc2ccccc2)c2ccccc21 [Example 116, (2E)-N-(4-hydroxybutyl)-N-benzyl-3-[1-methyl-2-(3,4-methylenedioxyphenyl)-1H-indol-3-yl]acrylamide] |  | 76 | 168 | 
 |  |  | COc1cc2c(cc1OC)CN(C(=O)/C=C/c1c(-c3ccccc3)n(C)c3cccnc13)CC2 [Example 136, 2-[(2E)-3-(1-methyl-2-phenyl-1H-pyrrolo[3,2-b]pyridin-3-yl)prop-2-enoyl]-6,7-dimethoxy-1,2,3,4-tetrahydroisoquinoline hydrochloride] | 66 | 111 |  | 
 |  |  | Cn1c(-c2ccc3c(c2)OCO3)c(/C=C/C(=O)N[C@@H]2c3ccccc3C[C@@H]2O)c2ccccc21 [Example 113, (2E)-N-[(1R,2S)-2-hydroxy-2,3-dihydro-1H-inden-1-yl]-3-[1-methyl-2-(3,4-methylenedioxyphenyl)-1H-indol-3-yl]acrylamide] |  | 88 | 148 | 
 |  |  | COc1ccc(-c2c(/C=C/C(=O)N(C)CCC(O)c3ccccc3)c3ccccc3n2C)cc1 (centres unmarked) [Example 119, (2E)-N-methyl-N-(3-hydroxy-3-phenylpropyl)-3-[1-methyl-2-(4-methoxyphenyl)-1H-indol-3-yl]acrylamide] |  | 75 | 153 | 
 |  |  | COc1cc2c(cc1OC)CN(C(=O)/C=C/c1c(-c3ccccc3)n(C)c3cnccc13)CC2 [Example 130, 2-[(2E)-3-(1-methyl-2-phenyl-1H-pyrrolo[2,3-c]pyridin-3-yl)prop-2-enoyl]-6,7-dimethoxy-1,2,3,4-tetrahydroisoquinoline hydrochloride] | 92 | 157 |  | 
 |  |  | Cn1c(-c2ccccc2)c(/C=C/C(=O)N(CCc2cccs2)CC(=O)O)c2cccnc21 [Example 137, N-[(2E)-3-(1-methyl-2-phenyl-1H-pyrrolo[2,3-b]pyridin-3-yl)prop-2-enoyl]-N-[2-(2-thienyl)ethyl]aminoacetic acid] | 38 | 72 |  | 
 |  |  | CC(=O)OCCN(Cc1ccccc1)C(=O)c1cnc(N2CCN(C(=O)c3c(-c4ccccc4)n(C)c4ccc(C)cc34)CC2)cn1 [Example 125, N-benzyl-N-[(5-{4-[(1,5-dimethyl-2-phenyl-1H-indol-3-yl)carbonyl]piperazin-1-yl}pyrazin-2-yl)carbonyl]aminoethyl acetate] | 52 | 91 |  | 
 |  |  | COC(=O)CC1c2cc(OC)c(OC)cc2CCN1C(=O)/C=C/c1c(-c2ccccc2)n(C)c2ncccc12 (centres unmarked) [Example 133, Methyl {6,7-dimethoxy-2-[(2E)-3-(1-methyl-2-phenyl-1H-pyrrolo[2,3-b]pyridin-3-yl)prop-2-enoyl]-1,2,3,4-tetrahydroisoquinolin-1-yl}acetate hydrochloride] | 57 | 104 |  | 
 |  |  | CC1c2cc(O)c(O)cc2CCN1C(=O)/C=C/c1c(-c2ccc3c(c2)OCO3)n(C)c2ccccc12 (centres unmarked) [Example 114, 2-{(2E)-3-[1-methyl-2-(3,4-methylenedioxyphenyl)-1H-indol-3-yl]prop-2-enoyl}-1-methyl-6,7-dihydroxy-1,2,3,4-tetrahydroisoquinoline] |  | 94 | 165 | 
 |  |  | Cn1c(-c2ccccc2)c(/C=C/C(=O)N[C@@H]2c3ccccc3C[C@@H]2O)c2cc3c(cc21)OCO3 [Example 97, (2E)-N-[(1R, 2S)-2-hydroxy-2,3-dihydro-1H-inden-1-yl]-3-(1-methyl-2-phenyl-5,6-methylenedioxy-1H-indol-3-yl)acrylamide] | 37 | 69 |  | 
 |  |  | COC(=O)c1ccc(-c2c(/C=C/C(=O)N3CCc4cc(OC)c(OC)cc4C3)c3cc(C)ccc3n2C)cc1 [Example 142, 2-{(2E)-3-[1,5-dimethyl-2-(4-carbomethoxyphenyl)-1H-indol-3-yl]prop-2-enoyl}-6,7-dimethoxy-1,2,3,4-tetrahydroisoquinoline] | 65 | 130 |  | 
 |  |  | Cc1ncsc1CCNC(=O)c1cnc(N2CCN(C(=O)c3c(-c4ccccc4)n(C)c4ccc(Br)cc34)CC2)cn1 [Example 144, 5-{4-[(5-bromo-1-methyl-2-phenyl-1H-indol-3-yl)carbonyl]piperazin-1-yl}-N-[2-(4-methyl-1,3-thiazol-5-yl)ethyl]pyrazine-2-carboxamide hydrochloride] | 78 | 85 |  | 

Reference: patent US20050014942A1, “Amide derivatives and drugs” (priority 2001, published 2005)
